ChEMBL document CHEMBL4130354 (Eur J Med Chem, 2017)

Molecular target: T1, Prostaglandin G/H synthase 2 (Ovis aries, UniProt P79208)
T1 sequence (P79208 whole entry): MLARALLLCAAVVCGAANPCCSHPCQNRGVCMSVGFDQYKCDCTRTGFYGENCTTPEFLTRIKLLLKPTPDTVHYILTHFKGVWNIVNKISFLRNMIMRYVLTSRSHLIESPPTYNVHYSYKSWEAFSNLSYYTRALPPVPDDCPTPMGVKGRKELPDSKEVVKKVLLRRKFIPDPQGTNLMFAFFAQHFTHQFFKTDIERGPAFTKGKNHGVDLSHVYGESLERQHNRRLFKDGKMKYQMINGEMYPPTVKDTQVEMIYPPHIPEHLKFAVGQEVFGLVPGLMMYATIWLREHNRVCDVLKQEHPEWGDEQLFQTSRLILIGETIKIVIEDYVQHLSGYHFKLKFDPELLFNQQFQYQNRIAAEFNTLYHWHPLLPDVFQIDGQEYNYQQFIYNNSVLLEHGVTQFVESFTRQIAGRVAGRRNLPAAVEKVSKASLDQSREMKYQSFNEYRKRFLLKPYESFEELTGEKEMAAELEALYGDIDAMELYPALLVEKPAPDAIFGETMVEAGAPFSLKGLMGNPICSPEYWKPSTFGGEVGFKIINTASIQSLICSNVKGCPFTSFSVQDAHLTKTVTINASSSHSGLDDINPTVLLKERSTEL
Experiment: Inhibition of recombinant ovine COX2 catalytic activity using arachidonic acid as substrate preincubated for 5 mins followed by substrate and hemin addition measured after 2 mins by colorimetric method

Row | IC50 [µM] | Compound
1 | > 50 | COc1ccc(-c2noc(CC(=O)O)c2-c2ccc(OC)cc2)cc1 [MOFEZOLAC]
2 | > 50 | Cc1onc(-c2ccc(Cl)o2)c1-c1ccccc1
